SMILES strings stand for the structures.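 Growth conditions: 96-well plates. Treatment: test compound, 48 hours, 5 concentrations. Analysis: linear interpolation between bracketing concentrations; unreached endpoints set to highest concentration. At the GI50, growth is halved. The concentration for full growth arrest is given as TGI.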

What all share (assay): NCI tumour cell line growth inhibition, 48 h
In assay [1] the test system is A549 NSCLC.
In assay [2] the test system is HT29 colon.
Assay [3] relates to MDA-MB-435.
The subject of assay [4] is NCI-H23 lung.
The subject of assay [5] is RPMI-8226 leukemia.
Assay [6] relates to SF-295 CNS.
Assay [7] relates to SN12C renal.
Assay [8] has as its system SNB-75 CNS.
Assay [9] has as its system SR leukemia.
Assay [10] concerns TK-10 renal.

Take `C=C(CNCCO)[C@@H]1CC[C@]2(CO)CC[C@]3(C)[C@H](CC[C@@H]4[C@@]5(C)CCC(N)C(C)(C)[C@@H]5CC[C@]43C)[C@@H]12` (some centres undefined): the GI50 in assay [1] is 2.41 µM; in assay [2], 1.86 µM; in assay [3], 1.72 µM; in [4], 4.66 µM; in assay [5], 2.03 µM; in [6], 1.73 µM. Further, the GI50 in assay [7] is 1.97 µM; in assay [8], 1.4 µM; in [9] it was 1.9 µM; in assay [10], 2.54 µM. For the same molecule, the TGI in assay [1] worked out at 6.69 µM; in assay [2], 3.89 µM; in assay [3] it was 3.3 µM; in [4], 17.6 µM; in [5], 4.73 µM; in assay [6], 3.52 µM. The TGI came to 4.07 µM in assay [7], 3.93 µM in assay [8], 5.22 µM in [9] and 7.07 µM in [10].

As for `Cc1nc2c(nc1C)C(=O)c1ccccc1C2=O`, the TGI in assay [1] stood at 3.41 µM; in assay [2], 11.7 µM; in [3], 0.365 µM; in assay [4], 2.59 µM; in assay [5] it was 45.9 µM; in assay [6], 4.38 µM. Also, the TGI in [7] was determined as 6.4 µM; in [8], 6.15 µM; in assay [9] it was 28.2 µM; in assay [10] it was 79.5 µM.

For `O=C1c2ccccc2C(=O)c2sc(Nc3cccc(Cl)c3)nc21`, the TGI came out at 4.6 µM in [1]; 8.36 µM in [2]; 0.711 µM in assay [3]; 3.59 µM in assay [4]; 4.07 µM in [5]; 3.09 µM in assay [6]. Moreover, the TGI in assay [7] was 2.84 µM; in assay [8] it was 3.67 µM; in assay [9], 5.47 µM; in assay [10], 5.39 µM. Further, the GI50 in assay [3] was 0.258 µM.

As for `COc1cc2nc(C)nc(N[C@H](C)c3cc(N)cc(C(F)(F)F)c3)c2cc1O[C@H]1CCOC1`, the GI50 in assay [1] is 14.8 µM; in [2], 13.4 µM; in assay [3], 16.8 µM; in assay [4], 13.2 µM; in [5], 11 µM; in assay [6] it was 11.6 µM. Also, the GI50 in assay [7] was 6.46 µM; in assay [8], 10.4 µM; in [9], 2.25 µM; in [10] it was 2.9 µM. In addition, the TGI amounted to 32.4 µM in [1]; 28.4 µM in assay [2]; 30.5 µM in [3]; 30.6 µM in [4]; 47.9 µM in assay [5]; 24.8 µM in assay [6]. The TGI in [7] is 21.9 µM; in assay [8], 23.3 µM; in assay [9], 29.2 µM; in assay [10], 20.6 µM.

`O=C(NCCNc1nccc(-c2c(-c3cccc(O)c3)nc3sccn23)n1)c1ccccc1O`: the GI50 was 5.02 µM in assay [1]; 3.61 µM in assay [2]; 0.491 µM in [3]; 4.51 µM in [4]; 2.27 µM in assay [5]; 4.18 µM in [6]. Moreover, the GI50 in assay [7] is 3.56 µM; in assay [8], 2.29 µM; in [9] it was 3.71 µM; in [10], 6.17 µM. The TGI in assay [1] is more than 51.1 µM; in [2], 20.7 µM; in assay [3], 12.1 µM; in assay [4], 36.8 µM; in assay [5], 10.8 µM; in [6], 26.6 µM. The TGI in assay [7] is 52 µM; in assay [8], 19.6 µM; in assay [9], more than 56.7 µM; in assay [10] it was 30.3 µM.

As for `COc1ccc(-c2cc(-c3ccc(Nc4nc(Nc5ccccc5)nc(Nc5ccc(Cl)cc5)n4)cc3)nc(N)c2C#N)cc1`, the GI50 was 2.74 µM in assay [1]; 1.1 µM in [2]; 0.962 µM in assay [3]; 1.72 µM in assay [4]; 0.828 µM in assay [5]; 1.54 µM in [6]. In addition, the GI50 was 2.03 µM in [7], 0.737 µM in assay [8], 0.582 µM in assay [9] and 0.974 µM in assay [10]. Moreover, the TGI in assay [1] was more than 50 µM; in [2], 2.96 µM; in [3] it was 2.16 µM; in assay [4], 13.6 µM; in [5] it was 3.79 µM; in [6], 7.28 µM. The TGI is more than 50 µM in assay [7], 2.71 µM in [8], 2.94 µM in assay [9] and 1.79 µM in [10].

Turning to `NC1CCC(Nc2nc(NCc3ccc(-c4ccco4)nc3)c3ncn(C4CCCC4)c3n2)CC1` (centres undefined), the GI50 in assay [1] was 0.0273 µM; in assay [2] it was 0.00801 µM; in [3], 0.0225 µM; in assay [4], 0.0264 µM; in assay [5], 0.0119 µM; in [6], 0.0751 µM. The GI50 in assay [7] is 0.0371 µM; in [8] it was 0.0101 µM; in assay [9] it was 0.0349 µM; in assay [10], 0.16 µM. Further, the TGI in assay [1] was 14.4 µM; in assay [3], 1.24 µM; in assay [4], 0.0953 µM; in [5], 0.0895 µM; in assay [7], 11.6 µM; in [8] it was 0.0299 µM. For the same molecule, the TGI amounted to 0.19 µM in [9] and 12.8 µM in assay [10].

Regarding `CCOc1ccccc1-n1c(CN2CCN(C(=O)COc3ccc(CNCCCCCCN4C5CCCC4CC(OC(=O)Nc4cc(C)ccc4OC)C5)cc3)CC2)nc2ccccc2c1=O` (centres undefined), the GI50 was 1.67 µM in [1]; 0.798 µM in assay [2]; 0.811 µM in assay [3]; 1.93 µM in assay [4]; 1.13 µM in assay [5]; 1.66 µM in assay [6]. In addition, the GI50 in assay [7] is 1.76 µM; in assay [8], 1.4 µM; in [9], 0.656 µM; in assay [10], 1.72 µM. The TGI in assay [1] was 3.27 µM; in assay [2], 2.05 µM; in [3], 2.12 µM; in assay [4], 3.66 µM; in assay [5], 3.4 µM; in assay [6] it was 3.27 µM. For the same molecule, the TGI in [7] is 3.24 µM; in [8] it was 2.72 µM; in assay [9], 1.59 µM; in assay [10] it was 3.14 µM.

Values taken from PubChem BioAssay (NCI).
